ChEMBL document CHEMBL1154963, “Part 2: Structure-activity relationship (SAR) investigations of fused pyrazoles as potent, selective and orally available inhibitors of p38alpha mitogen-activated protein kinase” (Bioorg Med Chem Lett, 2010)

Experiment: Clearance in Sprague-Dawley rat at 2 mg/kg, iv
Format: ADME, organism-based
Design: dose 2 mg/kg, route intravenous
Conditions: in vivo
`Cc1nnc(Nc2cc(C(=O)NC3CC3)ccc2Cl)c2cnn(-c3c(F)cccc3F)c12` gave a clearance of 7.83 mL/min/kg.
With `Cc1ccc(C(=O)NC2CC2)cc1Nc1nncc2c1cnn2-c1c(F)cccc1F` the clearance was 9.67 mL/min/kg.
Work on `O=C(NC1CC1)c1ccc(Cl)c(Nc2nncc3c2cnn3-c2c(F)cccc2F)c1` yielded a clearance of 3.67 mL/min/kg.
With `O=C(NC1CC1)c1ccc(Cl)c(Nc2nncc3c2cnn3-c2ccc(F)cc2F)c1` the clearance was 2.67 mL/min/kg.

Experiment: Volume of distribution at steady state in Sprague-Dawley rat at 2 mg/kg, iv
Format: ADME, organism-based
Design: dose 2 mg/kg, route intravenous
Conditions: in vivo, read-out: Vdss
`Cc1nnc(Nc2cc(C(=O)NC3CC3)ccc2Cl)c2cnn(-c3c(F)cccc3F)c12` showed a Vd of 1.4 L/kg.
`Cc1ccc(C(=O)NC2CC2)cc1Nc1nncc2c1cnn2-c1c(F)cccc1F` gave a Vd of 1.6 L/kg.
`O=C(NC1CC1)c1ccc(Cl)c(Nc2nncc3c2cnn3-c2c(F)cccc2F)c1` gave a Vd of 1.1 L/kg.
`O=C(NC1CC1)c1ccc(Cl)c(Nc2nncc3c2cnn3-c2ccc(F)cc2F)c1` showed a Vd of 0.89 L/kg.

Experiment: Half life in Sprague-Dawley rat at 2 mg/kg, iv
Format: ADME, organism-based
Design: dose 2 mg/kg, route intravenous
Conditions: in vivo
In the case of `Cc1nnc(Nc2cc(C(=O)NC3CC3)ccc2Cl)c2cnn(-c3c(F)cccc3F)c12`, the half-life is reported as 2.2 h.
`Cc1ccc(C(=O)NC2CC2)cc1Nc1nncc2c1cnn2-c1c(F)cccc1F` showed a half-life of 2.8 h.
With `O=C(NC1CC1)c1ccc(Cl)c(Nc2nncc3c2cnn3-c2c(F)cccc2F)c1` the half-life was 3.6 h.
For `O=C(NC1CC1)c1ccc(Cl)c(Nc2nncc3c2cnn3-c2ccc(F)cc2F)c1`, the half-life was 3.5 h.

Experiment: AUC (0 to infinity) in Sprague-Dawley rat at 2 mg/kg, po
Format: ADME, organism-based
Design: time infinity, dose 2 mg/kg, route oral
Conditions: plasma
For `Cc1nnc(Nc2cc(C(=O)NC3CC3)ccc2Cl)c2cnn(-c3c(F)cccc3F)c12`, the AUC(0-inf) was 3880 ng·h/mL.
In the case of `Cc1ccc(C(=O)NC2CC2)cc1Nc1nncc2c1cnn2-c1c(F)cccc1F`, the AUC(0-inf) is reported as 671 ng·h/mL.
Work on `O=C(NC1CC1)c1ccc(Cl)c(Nc2nncc3c2cnn3-c2c(F)cccc2F)c1` yielded an AUC(0-inf) of 6830 ng·h/mL.
`O=C(NC1CC1)c1ccc(Cl)c(Nc2nncc3c2cnn3-c2ccc(F)cc2F)c1` gave an AUC(0-inf) of 6550 ng·h/mL.

Experiment: Oral bioavailability in Sprague-Dawley rat at 2 mg/kg
Format: ADME, organism-based
Conditions: in vivo
`Cc1nnc(Nc2cc(C(=O)NC3CC3)ccc2Cl)c2cnn(-c3c(F)cccc3F)c12` gave a bioavailability of 91%.
For `Cc1ccc(C(=O)NC2CC2)cc1Nc1nncc2c1cnn2-c1c(F)cccc1F`, the bioavailability was 19%.
`O=C(NC1CC1)c1ccc(Cl)c(Nc2nncc3c2cnn3-c2c(F)cccc2F)c1` showed a bioavailability of 75%.
Work on `O=C(NC1CC1)c1ccc(Cl)c(Nc2nncc3c2cnn3-c2ccc(F)cc2F)c1` yielded a bioavailability of 53%.
